The source of these data is PubChem BioAssay AID1963870 (Molecular Pharmacology Branch, DTP, NCI, 2024).

Broadly, the pIC50 is −log10 of the IC50, conventionally taken in molar units. Usually viability, T/C stands for the ratio of treated to control.

In this assay the test system is 292921-168-R-J2-PDC KRAS tumor spheroid viability. As to the kind of experiment: Anticancer human tumor 292921-168-R-J2-PDC patient-derived pancreatic carcinoma cell line growth inhibition [KRAS2]. The settings on record: spheroids with HUVEC and MSC; for viability, T/C: stronger effect = lower value. The essentials: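 Combination screen of spheroid viability in tumor-cell co-cultures with endothelial (HUVEC) and mesenchymal stem cell stroma. Each agent was tested in half-log dilutions, topping at clinical Cmax or at 10 microM without a known Cmax.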

[1] abbreviates: curve of first compound, second compound 0.1 µM.
Where [2] appears, read: curve of first compound, second compound 0.316 µM.
[3] abbreviates: curve of first compound, second compound 1 µM.
Where [4] appears, read: curve of first compound, second compound 3.16 µM.
Setting [5] is: second compound 0.1 µM, first compound 0.0316 µM.
Setting [6] is: second compound 0.1 µM, first compound 0.1 µM.
Setting [7] is: second compound 0.1 µM, first compound 0.316 µM.
Where [8] appears, read: second compound 0.1 µM, first compound 1 µM.
The mark [9] stands for this setting: second compound 0.1 µM, first compound 3.16 µM.
The mark [10] stands for this setting: second compound 0.1 µM, first compound 10 µM.
Where [11] appears, read: second compound 0.316 µM, first compound 0.0316 µM.
[12] abbreviates: second compound 0.316 µM, first compound 0.1 µM.
The mark [13] stands for this setting: second compound 0.316 µM, first compound 0.316 µM.
Setting [14] is: second compound 0.316 µM, first compound 1 µM.
Where [15] appears, read: second compound 0.316 µM, first compound 3.16 µM.
Where [16] appears, read: second compound 0.316 µM, first compound 10 µM.
Where [17] appears, read: second compound 1 µM, first compound 0.0316 µM.
The mark [18] stands for this setting: second compound 1 µM, first compound 0.1 µM.
[19] abbreviates: second compound 1 µM, first compound 0.316 µM.
The mark [20] stands for this setting: second compound 1 µM, first compound 1 µM.
The mark [21] stands for this setting: second compound 1 µM, first compound 3.16 µM.
Where [22] appears, read: second compound 1 µM, first compound 10 µM.
Where [23] appears, read: second compound 3.16 µM, first compound 0.0316 µM.
The mark [24] stands for this setting: second compound 3.16 µM, first compound 0.1 µM.
The mark [25] stands for this setting: second compound 3.16 µM, first compound 0.316 µM.
[26] abbreviates: second compound 3.16 µM, first compound 1 µM.
[27] abbreviates: second compound 3.16 µM, first compound 3.16 µM.
The mark [28] stands for this setting: second compound 3.16 µM, first compound 10 µM.
[29] abbreviates: curve of first compound, second compound 10 µM.
[30] abbreviates: second compound 10 µM, first compound 0.0316 µM.
[31] abbreviates: second compound 10 µM, first compound 0.1 µM.
Where [32] appears, read: second compound 10 µM, first compound 0.316 µM.
Setting [33] is: second compound 10 µM, first compound 1 µM.
Where [34] appears, read: second compound 10 µM, first compound 3.16 µM.
[35] abbreviates: second compound 10 µM, first compound 10 µM.

pIC50: −log10 of the molar value.
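Also: drug exposure lasted seven days after spheroids formed for three days.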
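For viability, T/C in this document: percent of DMSO vehicle control viability which is 100%.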

For `O=C(c1cc(Cc2n[nH]c(=O)c3ccccc23)ccc1F)N1CCN(C(=O)C2CC2)CC1` + C=CC(=O)N1CCN(c2nc(OCC3CCCN3C)nc3c2CCN(c2cccc4cccc(C)c24)C3)CC1CC#N, the pIC50 by setting is: (curve of first compound, second compound 0.0316 µM) 5.25; under setting [1], 5.21; under setting [2], 5.45; under setting [3], greater than 7.50; under setting [4], greater than 7.50. The viability, T/C (second compound 0.0316 µM, first compound 0.0316 µM) was 102%; the viability, T/C (second compound 0.0316 µM, first compound 0.1 µM) was 101%; the viability, T/C (second compound 0.0316 µM, first compound 0.316 µM) was 102%; the viability, T/C (second compound 0.0316 µM, first compound 1 µM) was 85.1%; the viability, T/C (second compound 0.0316 µM, first compound 3.16 µM) was 62%; the viability, T/C (second compound 0.0316 µM, first compound 10 µM) is 38.8%. Besides, the viability, T/C reads like this: under setting [5], 88.3%; under setting [6], 68.2%; under setting [7], 84.5%; under setting [8], 75.6%; under setting [9], 68.5%; under setting [10], 36.3%. The viability, T/C under setting [11] was 50.5%; the viability, T/C under setting [12] was 56.1%; the viability, T/C under setting [13] was 55.2%; the viability, T/C under setting [14] was 62.7%; the viability, T/C under setting [15] was 50.2%; the viability, T/C under setting [16] was 30.8%. For the same molecule, the viability, T/C was 42.9% under setting [17]; 43.5% under setting [18]; 38.1% under setting [19]; 34.3% under setting [20]; 43.3% under setting [21]; 19.7% under setting [22]. Also, the viability, T/C is, setting by setting: under setting [23], 0.21%; under setting [24], 0.17%; under setting [25], 0.19%; under setting [26], 0.49%; under setting [27], 0.32%; under setting [28], 0.25%.
Take `CCNC(=O)CC1N=C(c2ccc(Cl)cc2)c2cc(OC)ccc2-n2c(C)nnc21` (centres undefined) + CC1OCC2(CCN(c3cnc(Sc4ccnc(N)c4Cl)c(N)n3)CC2)C1N: the pIC50 reads like this: under setting [1], 6.54; under setting [2], 7.32; under setting [3], greater than 7.50; under setting [4], greater than 7.50; under setting [29], greater than 7.50. The viability, T/C under setting [5] is 69.1%; the viability, T/C under setting [6] is 60.6%; the viability, T/C under setting [7] is 48.1%; the viability, T/C under setting [8] is 40.1%; the viability, T/C under setting [9] is 29.4%; the viability, T/C under setting [10] is 27.5%. The viability, T/C runs as follows: under setting [11], 53.5%; under setting [12], 45.5%; under setting [13], 31.4%; under setting [14], 31.7%; under setting [15], 25.1%; under setting [16], 19.7%. Further, the viability, T/C was 45.6% under setting [17]; 43.7% under setting [18]; 33.5% under setting [19]; 31.6% under setting [20]; 19.9% under setting [21]; 18.3% under setting [22]. In addition, the viability, T/C was 37.4% under setting [23]; 34.6% under setting [24]; 26.2% under setting [25]; 23% under setting [26]; 20% under setting [27]; 16.1% under setting [28]. In addition, the viability, T/C under setting [30] was 33.8%; the viability, T/C under setting [31] was 31.1%; the viability, T/C under setting [32] is 28.4%; the viability, T/C under setting [33] is 23.1%; the viability, T/C under setting [34] was 20.9%; the viability, T/C under setting [35] was 17.3%.
Consider `CC1COCCN1c1cc(-c2ccnn2C)c2ccnc(-c3ccn[nH]3)c2n1` (centres undefined), for which the viability, T/C (compound 0.01 µM) is 48% [middle of 5 runs]; the viability, T/C (compound 0.0316 µM) is 23.6% [middle of 5 runs]; the viability, T/C (compound 0.1 µM) was 16.1% [middle of 5 runs]; the viability, T/C (compound 0.316 µM) is 14.2% [middle of 5 runs]; the viability, T/C (compound 1 µM) is 14.4% [middle of 5 runs]; the viability, T/C (compound 3.16 µM) is 16% [middle of 5 runs]. Further, where the note is “curve of compound”, the pIC50 is greater than 8.00.
On to `COC(=O)c1ccc2c(C(=Nc3ccc(N(C)C(=O)CN4CCN(C)CC4)cc3)c3ccccc3)c(O)[nH]c2c1`, for which the viability, T/C reads like this: (compound 3.16 µM) 6.78% [middle of 5 runs]; (compound 10 µM) 0.34% [middle of 5 runs].
Turning to `Cn1nccc1Nc1nccc(-c2cc3c(s2)C(C)(C)N(CCN2CCOCC2)C3=O)n1` + COc1cc2nc(C)nc(NC(C)c3cc(N)cc(C(F)(F)F)c3)c2cc1OC1CCOC1, the pIC50 under setting [1] is 7.19; the pIC50 under setting [2] was 7.26; the pIC50 under setting [3] was 7.33; the pIC50 under setting [4] was 7.49; the pIC50 under setting [29] is greater than 7.50. Also, the viability, T/C under setting [5] is 74.8%; the viability, T/C under setting [6] was 34.9%; the viability, T/C under setting [7] is 14.8%; the viability, T/C under setting [8] is 11.1%; the viability, T/C under setting [9] is 9.76%; the viability, T/C under setting [10] was 9.52%. Besides, the viability, T/C runs as follows: under setting [11], 66.2%; under setting [12], 32.1%; under setting [13], 16.4%; under setting [14], 10.4%; under setting [15], 8.74%; under setting [16], 9.26%. Moreover, the viability, T/C is, setting by setting: under setting [17], 60.1%; under setting [18], 31.6%; under setting [19], 15.8%; under setting [20], 10.9%; under setting [21], 9.75%; under setting [22], 10.1%. Moreover, the viability, T/C under setting [23] is 50.7%; the viability, T/C under setting [24] is 26.1%; the viability, T/C under setting [25] was 14.3%; the viability, T/C under setting [26] is 10.2%; the viability, T/C under setting [27] was 8.41%; the viability, T/C under setting [28] was 10.2%. Also, the viability, T/C was 25.4% under setting [30]; 15.9% under setting [31]; 10.3% under setting [32]; 9.05% under setting [33]; 9.73% under setting [34]; 7.56% under setting [35].
